# Data reported in patent US7880007B2, “Bicyclic substituted phenyl piperidine modulators of muscarinic receptors” (Vertex Pharmaceuticals Incorporated, priority 2004, dated 2011).
# Columns and labels:
# Format in all cases: cell-based
# M3 muscarinic receptor = biological target: T1, M3 muscarinic receptor (Homo sapiens, UniProt P20309); assay: Functional mobilization of intracellular calcium (FLIPR), M3-CHO cells; conditions: for Emax: 100% efficacy = maximum response obtained with the Carbachol control; for M3 Activity: M3-CHO cells, calcium mobilization (FLIPR)
# T1 construct: expressed in transfected cells; host or cells: CHO (M3-CHO)
# Method: Functional Mobilization of Intracellular Calcium to Determine Muscarinic Receptor Activity:
# CHO cells expressing muscarinic receptors (M1 to M5) are grown as monolayers in tissue culture flasks at 37° C. in a humidified atmosphere containing 5% CO2 and passaged every 3-5 days. The growth media is Dulbecco's modified eagles medium (DMEM, Gibco Cat #12430-054), containing 25 mM Hepes and supplemented with Fetal Bovine Serum (Hyclone, cat #SH30071.03), 0.1 mM of MEM non-essential amino acids (GIBCO, Cat #11140-050), 1 mM MEM Sodium Pyruvate (GIBCO Cat #11360-070) and 100 units/ml of Penicillin G and 100 μg/ml of Streptomycin (GIBCO Cat #15140-122). The recombinant muscarinic receptor cell lines are grown under antibiotic pressure with media containing 25 μg/ml zeocin and 500 μg/ml G418 (M1-CHO), 4 μg/ml puromycin, 50 μg/ml zeocin and 2.5 μg/ml blasticidin (M2 and M4-CHO) or 50 μg/ml zeocin and 4 μg/ml puromycin (M3 and M5-CHO).
# Cells are harvested at 80-90% confluence using Versene (GIBCO Cat #15040-066), collected by centrifugation and seeded 18-24 hrs prior to running the calcium assay at a density of 5,000-10,000 cells/well in […], clear-bottomed 384-well plates (BD Biocoat, poly-D-lysine, Cat #356663). The day of the experiment, the cells are washed with a plate washer (Bioteck Instruments, ELX 405) using bath 1 buffer (140-mM NaCl, 4.5-mM KCl, 2-mM CaCl2, 1-mM MgCl2, 10-mM Hepes-Na, 10-mM Glucose, pH 7.4, with NaOH) containing 1 mM Probenecid. Next, the calcium dye Fluo-3 (25 μl/well of Fluo-3 AM at 4 μM, Molecular Probes F-1241, in Bath 1 buffer containing 1 mM Probenecid) is added to the 25 μl of Bath 1 remaining in each well after the plate wash and the dye is loaded at 37° C. in the tissue culture incubator for 60-90 min. The fluorescent dye is removed using the plate washer with Bath 1 containing 1 mM Probenecid, leaving 25 μl/well of this solution after the wash. Alternatively, cells can be loaded with the calcium indicator from Molecular Devices (Calcium 3 Assay Reagents, Cat #R7181) adding 5 μl of a 5× solution dye in Bath 1 containing 1 mM Probenecid (10 ml per dye flask cat #R7182 to generate a solution 20×) to 20 μl of the same buffer. After loading for 60 min, the experiment can be run without having to remove the dye.
# Compounds are prepared at a 2× fold concentration in a 96-well plate (round bottom, Costar Corning cat #3656), by reconstituting the pre-spotted compounds in bath 1 containing 1 mM probenecid. The final concentration DMSO is 0.5%, and the amount of DMSO is normalized across the assay plate. To determine an agonist action of the compounds on muscarinic receptors, the reconstituted compounds are added (25 μl compound/well) to the cell assay plate (containing 25 μl/well) using the multi-channel robotic system of the FLIPR 3 Instrument (Molecular Devices, Sunnyvale, Calif.). To determine a functional inhibitory action of the compounds on muscarinic receptors, the reconstituted compounds are added (25 μl compound/well) to the assay plate and pre-incubated for 15 min prior to adding 25 μl of Carbachol at 3× the EC80 for each muscarinic subtype. Alternatively, the compounds can be co-applied simultaneously with the agonist. In both assay modes, the fluorescence is recorded for 60 sec (excitation wavelength is […] and emission wavelength 540 nm) using the FLIPR 3 instrument.
# The potency, efficacy and selectivity of the muscarinic compounds were evaluated by screening the compound activity across the whole family (M1 to M5 cells). Compounds were also screened for activity on other proteins such as other GPCRs and ion channels to determine selectivity on M4 receptors.
# Examples of activities and efficacies of the muscarinic compounds of formulae (I, Ia, Ib, and II) on modulating M1, M2, M3 and M4 receptors are shown below in Table 3. […]
# M2 muscarinic receptor = biological target: T2, M2 muscarinic receptor (Homo sapiens, UniProt P08172); assay: Functional mobilization of intracellular calcium (FLIPR), M2-CHO cells; conditions: for Emax: 100% efficacy = maximum response obtained with the Carbachol control; for M2 Activity: M2-CHO cells, calcium mobilization (FLIPR)
# T2 construct: expressed in transfected cells; host or cells: CHO (M2-CHO)
# T2 sequence (P08172 1-466): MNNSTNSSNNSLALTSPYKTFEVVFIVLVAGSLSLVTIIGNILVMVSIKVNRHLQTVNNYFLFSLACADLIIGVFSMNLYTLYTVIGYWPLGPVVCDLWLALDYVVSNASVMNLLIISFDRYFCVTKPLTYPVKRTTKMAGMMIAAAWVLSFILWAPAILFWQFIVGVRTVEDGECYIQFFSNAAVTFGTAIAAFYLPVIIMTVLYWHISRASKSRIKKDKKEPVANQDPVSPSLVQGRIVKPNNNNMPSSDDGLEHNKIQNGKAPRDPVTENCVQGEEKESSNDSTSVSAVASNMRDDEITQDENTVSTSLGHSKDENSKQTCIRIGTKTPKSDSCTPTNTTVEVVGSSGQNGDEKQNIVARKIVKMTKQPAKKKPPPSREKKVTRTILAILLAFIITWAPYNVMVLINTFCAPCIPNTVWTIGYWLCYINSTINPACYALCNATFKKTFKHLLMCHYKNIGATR
# In short: (§1)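 Calcium mobilisation read by FLIPR over 60 s (ex 488/em 540 nm) in recombinant muscarinic CHO lines loaded with calcium dye plus 1 mM probenecid. Compounds tested as agonists alone, or as inhibitors against EC80 carbachol after 15 min pre-incubation or co-addition; 0.5% DMSO; efficacy scaled to carbachol maximal response.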
# M1 muscarinic receptor = biological target: T3, M1 muscarinic receptor (Homo sapiens, UniProt P11229); assay: Functional mobilization of intracellular calcium (FLIPR), M1-CHO cells; conditions: for Emax: 100% efficacy = maximum response obtained with the Carbachol control; for M1 Activity: M1-CHO cells, calcium mobilization (FLIPR)
# T3 construct: expressed in transfected cells; host or cells: CHO (M1-CHO)
# T3 sequence (P11229 1-460): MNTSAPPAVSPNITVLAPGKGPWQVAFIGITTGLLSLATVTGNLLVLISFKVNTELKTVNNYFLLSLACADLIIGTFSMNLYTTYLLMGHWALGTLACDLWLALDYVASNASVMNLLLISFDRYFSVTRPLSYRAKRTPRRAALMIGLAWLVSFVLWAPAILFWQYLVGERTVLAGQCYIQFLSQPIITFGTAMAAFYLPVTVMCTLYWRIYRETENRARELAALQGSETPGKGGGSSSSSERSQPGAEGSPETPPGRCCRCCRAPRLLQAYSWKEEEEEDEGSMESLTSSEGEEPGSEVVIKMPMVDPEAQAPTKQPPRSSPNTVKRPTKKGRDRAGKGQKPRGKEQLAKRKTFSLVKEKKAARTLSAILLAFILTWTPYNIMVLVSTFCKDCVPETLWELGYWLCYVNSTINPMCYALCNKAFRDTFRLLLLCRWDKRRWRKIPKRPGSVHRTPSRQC
# In short: as §1
# M4 muscarinic receptor = biological target: T4, M4 muscarinic receptor (Homo sapiens, UniProt P08173); assay: Functional mobilization of intracellular calcium (FLIPR), M4-CHO cells; conditions: for Emax: 100% efficacy = maximum response obtained with the Carbachol control; for M4 Activity: M4-CHO cells, calcium mobilization (FLIPR)
# T4 construct: expressed in transfected cells; host or cells: CHO (M4-CHO)
# T4 sequence (P08173 1-479): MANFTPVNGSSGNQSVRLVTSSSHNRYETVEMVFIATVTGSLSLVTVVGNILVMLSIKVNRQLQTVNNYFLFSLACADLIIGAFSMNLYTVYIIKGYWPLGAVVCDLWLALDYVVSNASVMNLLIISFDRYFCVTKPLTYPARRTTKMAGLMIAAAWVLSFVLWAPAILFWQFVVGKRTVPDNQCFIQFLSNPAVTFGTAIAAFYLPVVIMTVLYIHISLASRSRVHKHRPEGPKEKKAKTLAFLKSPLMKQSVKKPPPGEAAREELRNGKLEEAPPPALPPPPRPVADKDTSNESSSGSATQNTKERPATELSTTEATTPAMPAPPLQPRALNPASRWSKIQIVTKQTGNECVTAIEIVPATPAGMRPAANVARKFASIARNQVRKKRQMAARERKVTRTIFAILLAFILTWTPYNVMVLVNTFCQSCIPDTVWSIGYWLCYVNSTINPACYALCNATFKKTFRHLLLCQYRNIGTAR
# In short: as §1
# T1 sequence (P20309 whole entry): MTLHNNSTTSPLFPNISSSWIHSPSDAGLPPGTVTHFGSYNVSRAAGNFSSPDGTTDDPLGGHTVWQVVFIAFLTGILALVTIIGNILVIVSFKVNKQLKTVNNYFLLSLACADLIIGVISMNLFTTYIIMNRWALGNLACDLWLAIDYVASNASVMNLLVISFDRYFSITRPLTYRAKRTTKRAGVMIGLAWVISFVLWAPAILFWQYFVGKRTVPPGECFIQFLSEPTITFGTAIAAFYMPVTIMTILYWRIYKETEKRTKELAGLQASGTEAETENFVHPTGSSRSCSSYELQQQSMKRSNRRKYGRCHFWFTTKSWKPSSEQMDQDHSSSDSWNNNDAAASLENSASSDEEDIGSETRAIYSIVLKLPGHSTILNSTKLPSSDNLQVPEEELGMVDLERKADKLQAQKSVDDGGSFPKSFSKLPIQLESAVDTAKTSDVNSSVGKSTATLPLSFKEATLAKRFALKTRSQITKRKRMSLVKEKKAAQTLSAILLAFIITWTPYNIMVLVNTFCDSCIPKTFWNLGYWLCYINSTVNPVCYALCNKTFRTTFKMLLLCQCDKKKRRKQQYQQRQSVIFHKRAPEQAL
Structure (SMILES),Emax (M3 muscarinic receptor) [%],M3 Activity (M3 muscarinic receptor),Emax (M2 muscarinic receptor) [%],M2 Activity (M2 muscarinic receptor),Emax (M1 muscarinic receptor) [%],M1 Activity (M1 muscarinic receptor),Emax (M4 muscarinic receptor) [%],M4 Activity (M4 muscarinic receptor)
COc1ccc(F)cc1C1(F)CCN(C[C@@H]2C[C@H]3C=C[C@H]2C3)CC1 [Compound 5],< 25,+ (activity was measured to be greater than 5.0 μM),25 to 100,+ (activity was measured to be greater than 5.0 μM),25 to 100,+ (activity was measured to be greater than 5.0 μM),25 to 100,+++ (activity was measured to be less than 1.0 μM)
COc1ccc(-c2ccc(C(N)=O)cc2)cc1C1CCN([C@H]2C[C@H]3CC[C@H]2C3)CC1 [Compound 6],< 25,+ (activity was measured to be greater than 5.0 μM),< 25,+ (activity was measured to be greater than 5.0 μM),< 25,+ (activity was measured to be greater than 5.0 μM),< 25,+ (activity was measured to be greater than 5.0 μM)
COc1ccc(-c2ccc(C(C)=O)cc2)cc1C1CCN([C@H]2C[C@H]3CC[C@H]2C3)CC1 [Compound 7],< 25,+ (activity was measured to be greater than 5.0 μM),< 25,+ (activity was measured to be greater than 5.0 μM),< 25,+ (activity was measured to be greater than 5.0 μM),25 to 100,++ (activity was measured to be from 1.0 μM to 5.0 μM)
COc1ccc(-c2ccc(C(=O)N3CCOCC3)cc2)cc1C1CCN([C@H]2C[C@H]3CC[C@H]2C3)CC1 [Compound 8],< 25,+ (activity was measured to be greater than 5.0 μM),< 25,+ (activity was measured to be greater than 5.0 μM),< 25,+ (activity was measured to be greater than 5.0 μM),< 25,+ (activity was measured to be greater than 5.0 μM)
COc1ccc(Cl)cc1C1CCN(C2CCCCC2)CC1 [Compound 9],< 25,+ (activity was measured to be greater than 5.0 μM),25 to 100,+++ (activity was measured to be less than 1.0 μM),25 to 100,+++ (activity was measured to be less than 1.0 μM),25 to 100,+++ (activity was measured to be less than 1.0 μM)
CNC(=O)c1ccc(-c2ccc(OC)c(C3CCN(C4CCOCC4)CC3)c2)cc1Cl [Compound 11],< 25,+ (activity was measured to be greater than 5.0 μM),< 25,+ (activity was measured to be greater than 5.0 μM),< 25,+ (activity was measured to be greater than 5.0 μM),25 to 100,++ (activity was measured to be from 1.0 μM to 5.0 μM)
O=C(COc1ccccc1C1CCN([C@H]2C[C@H]3CC[C@H]2C3)CC1)c1ccc(F)cc1 [Compound 12],< 25,+ (activity was measured to be greater than 5.0 μM),25 to 100,+ (activity was measured to be greater than 5.0 μM),< 25,+ (activity was measured to be greater than 5.0 μM),25 to 100,++ (activity was measured to be from 1.0 μM to 5.0 μM)
COc1ccccc1-c1ccc(OC)c(C2CCN([C@H]3C[C@H]4CC[C@H]3C4)CC2)c1 [Compound 13],< 25,+ (activity was measured to be greater than 5.0 μM),< 25,+ (activity was measured to be greater than 5.0 μM),< 25,+ (activity was measured to be greater than 5.0 μM),< 25,+ (activity was measured to be greater than 5.0 μM)
CCOC(=O)N1CCC(CN2CCC(c3cc(Cl)ccc3OC)CC2)CC1 [Compound 14],< 25,+ (activity was measured to be greater than 5.0 μM),25 to 100,+++ (activity was measured to be less than 1.0 μM),25 to 100,+++ (activity was measured to be less than 1.0 μM),25 to 100,+++ (activity was measured to be less than 1.0 μM)
